Consider 14 molecules from publication PMC12608245, “Integrated Molecular and Functional Analysis of Hop Ethanolic Extract in Caco-2 Cells: Insights into Inflammation, Barrier Function, and Transport” (International Journal of Molecular Sciences, 2025).

Data set [1] has as its system IL-6. As to the kind of experiment: IL-6 production in IL-1β-stimulated Caco-2 cells (ELISA). Conditions: IL-1β 10 ng/mL, 24 h. The class given is cell-based. As for the experimental part: (§1) Caco-2 cells were seeded in 48-well plates and cultured as described above. […] Prior to application, HLE was dissolved in DMSO and sterilely transferred into fresh serum-free medium. To remove high-molecular-weight pyrogens, the extract was subjected to a two-step ultrafiltration using a Microsep™ Advance Centrifugal Device with 30 kDa and 100 kDa cut-offs (Pall Corporation, Port Washington, NY, USA), as described in Kruk et al.. After ultrafiltration, 10% FBS was added to the medium. Following a one-hour pre-incubation, IL-1β was added to each well to achieve a final concentration of 10 ng/mL. After 24 h of incubation, the supernatants were collected, and IL-6 and IL-8 concentrations were determined using the sandwich ELISA method (BD Biosciences Pharmingen).
On the technique in general: ELISA stands for enzyme-linked immunosorbent assay.

The test system of data set [2] is Caco-2 monolayers. As to the kind of experiment: Transport and metabolism of HLE constituents through Caco-2 monolayers. Type of data set: in vitro ADME. The note with it: apical to basolateral, 24 h incubation of HLE with Caco-2, based on the peak area ratio. As to the method: Caco-2 cells were seeded and cultivated as described for the TEER measurements. After 21 days of cultivation, HLE solutions at concentrations of 12.5–100 µg/mL (prepared as for the cell viability assay) were added to the apical compartment. As a non-treated control, medium containing 0.5% DMSO was used. Supernatants from both the apical and basolateral compartments were collected at 0 h and 24 h for chromatographic analysis.
Analyses were performed using a Vanquish UHPLC system coupled with an Exploris 120 Orbitrap mass spectrometer (Thermo Scientific, Bremen, Germany) equipped with a Kinetex XB-C18 column (150 × 2.1 mm, 1.7 µm). Mobile phases consisted of (A) water and (B) acetonitrile:water (4:1, v/v), both containing 0.1% HCOOH and 5 mM NH4HCOO. […] Electrospray settings: spray voltage 3.5 kV (+)/2 kV (−); sheath/aux/sweep gas 48/11/2 Arb; ion transfer tube 320 °C; vaporizer 280 °C. Data were acquired in full-scan mode (resolution 120,000, polarity switching). MS2 spectra were obtained using stepped NCE 30/50% (resolution 15,000) and ddMS2 settings of four fragmentation scans per full scan, single-charge filter, isotope and dynamic exclusion enabled. Experimental samples were analyzed with and without fragmentation exclusion lists generated from control samples to enhance MS2 coverage. Data processing was performed in Compound Discoverer 3.4 (Thermo Scientific, Austin, TX, USA). Signals corresponding to hop extract constituents were identified based on comparison of donor compartment solution and method blank. Similarity analysis and molecular networking (mzMine 4.6) were based on shared fragments or constant m/z shifts.
Background: Caco-2 monolayers are a common model of the intestinal barrier.

Data set [3] has as its system Caco-2 monolayers. As to the kind of experiment: TEER measurement of Caco-2 monolayer. Type of data set: cell-based. Conditions: for TEER: IL-1β control. As for the experimental part: Caco-2 cells were cultivated in 6-well plates on a Transwell transparent insert (Greiner Bio-One, Kremsmünster, Austria) with density of 6 × 10^5 cells/insert for 21 days. (37 °C, 5% CO2) Medium that was used contained the earlier mentioned ingredients. Three mL of medium was added to the apical compartment, and 3.5 mL was added to the basolateral compartment. The medium was replaced three times per week. CellZscope systems for 24-well and 6-well formats (nanoAnalytics GmbH, Münster, Germany) were used to analyze the TEER. Solutions were made as described in Section 4.5 with concentrations 12.5–100 µg/mL. As non-treated control, medium containing 0.5% DMSO was used. The medium in the apical compartment was replaced with the HLE solutions or control. After a 24-h incubation period 25 ng/mL of IL-1β was added in basolateral compartment.

Data set [4] concerns IL-6. Put plainly: Caco-2 inflammatory model selection, IL-6 production (ELISA). The note with it: IL-1β 25 and 12.5 ng/mL, 24 h. Type of data set: cell-based. As for the experimental part: (§2) Cells were seeded in 48-well plates and cultured as described above. After reaching 100% confluence, they were stimulated with different concentrations and combinations of the following factors: TNF-α (1, 12.5, 25 ng/mL), LPS from E. coli (1, 5, 10 µg/mL), IFN-γ (1, 10, 50 ng/mL), a mixture of IFN-γ and TNF-α (1 + 1, 10 + 10, 50 + 50 ng/mL), and IL-1β (0.01, 0.02, 0.04, 0.08, 1, 12.5, 25 ng/mL). […] After 24 h of incubation, the supernatants were collected, and IL-6 and IL-8 concentrations were determined using the sandwich ELISA method (BD Biosciences Pharmingen, San Diego, CA, USA).

Data set [5] has as its system IL-8. Put plainly: IL-8 production in IL-1β-stimulated Caco-2 cells (ELISA). The class given is cell-based. Conditions: IL-1β-stimulated control, IL-1β 10 ng/mL, 24 h. As to the method: as §1
Data set [6] has as its system Caco-2 monolayers. Also noted: method as in Van de Walle et al. [20]. Conditions: IL-1β 25 ng/mL, Caco-2 cell monolayers; ref Van de Walle et al. [20]; cited from earlier work.
The test system of data set [7] is IL-8. Put plainly: Caco-2 inflammatory model selection, IL-8 production (ELISA). Type of data set: cell-based. The note with it: 24 h. As for the experimental part: as §2

Turning to `C[C@@H]1C[C@H]2[C@@H]3CCC4=CC(=O)C=C[C@]4(C)[C@@]3(F)[C@@H](O)C[C@]2(C)[C@@]1(O)C(=O)CO` [Dexamethasone, reference compound], in the data set on IL-6 [1] (dexamethasone 20 µM (positive control), compared with the IL-1β-stimulated control), the IL-6 level stood at 3.7 ± 0.3%.
As to `CC(C)=CCC(=O)[C@@]1(O)C(=O)C(C(=O)C(C)C)=C(O)[C@@]1(O)CC=C(C)C` [Peak M10, cohumulinone], in the data set on Caco-2 monolayers [2], the “Transport Efficiency (%)” value was determined as 9%.
On the same count and under the same terms, the figure for `COc1cc(O)c(CC=C(C)C)c(O)c1C(=O)/C=C/c1ccc(O)cc1` [Peak M13, xanthohumol] is 3.5%.
`CC(C)=CCC1=C(O)C(O)(CC=C(C)C)C(=O)C(C(=O)C(C)C)=C1O` (stereo not drawn) [Peak M14, cohumulone]: in the data set with Caco-2 monolayers [2], the “Transport Efficiency (%)” value is reported as 9.5%.
As for `CC(C)=CCC1=C(O)C(O)(CC=C(C)C)C(=O)C(C(=O)CCC(C)C)=C1O` (stereo not drawn) [Peak M17, prehumulone], the “Transport Efficiency (%)” value in the data set on Caco-2 monolayers [2] came to 4.3%.
As to “IL-1β: pro-inflammatory cytokine used as inflammatory trigger”, the TEER in the data set with Caco-2 monolayers [3] (33 h) is listed as 83.97 ± 4.20%; in the data set on Caco-2 monolayers [3] (42 h), 84.25 ± 1.33%. Moreover, the TEER value decrease in the data set on Caco-2 monolayers [3] (after 24 h of exposure to 25 ng/mL IL-1β) stood at 16 ± 1%. In addition, the “IL-6 secretion versus non-treated control” value with IL-6 [4] was “increase IL-6 at concentrations of 25 and 12.5 ng/mL significantly”. Besides, in the data set on IL-6 [1] (IL-1β-stimulated control), the IL-6 level came out at 103.3 ± 1.7%. In addition, the IL-8 level in the data set with IL-8 [5] is listed as 100.8 ± 5.5%. Further, in the data set on Caco-2 monolayers [6], the TEER reduction result was “approximately 20 ± 4%”. For the same molecule, the “IL-8 secretion versus non-treated control” value with IL-8 [7] (IL-1β 25, 12.5, 1, 0.08 and 0.04 ng/mL) was “significantly increased IL-8 secretion”.
As for TNF-α, in the data set with IL-8 [7] (TNF-α 25 and 12.5 ng/mL), the “IL-8 secretion versus non-treated control” value is listed as “significantly increased IL-8 secretion”.
In the case of hulupone/adhulupone [Peak M4], the “Transport Efficiency (%)” value in the data set on Caco-2 monolayers [2] amounted to 3.7%.
For the molecule “hydroxy-n-humulinone/hydroxyadhumolinone [Peak M11]”, in the data set on Caco-2 monolayers [2], the “Transport Efficiency (%)” value is reported as 17.4%.
As for “n-humulinone/adhumulinone isomer 1 [Peak M7]”, the “Transport Efficiency (%)” value in the data set with Caco-2 monolayers [2] came to 6.9%.
Same read-out and setting: with “n-humulinone/adhumulinone isomer 2 [Peak M12]” the figure was 11.7%; with “n-humulone/adhumulone isomer 1 [Peak M15]”, 8%; with “n-humulone/adhumulone isomer 2 [Peak M16]”, 9.6%.
Turning to tetrahydro-iso-α-acid [Peak M6], in the data set on Caco-2 monolayers [2], the “Transport Efficiency (%)” value stood at 2%.
